Test results published in patent US5801201A, “1-phenyl-2-dimenthylaminomethyl-cyclohexan-1-ol compounds as pharmaceutical active ingredients” (priority 1995, dated 1998).
Counter-ions that a name gives are not always drawn.

What follows are compounds tested on mice (assay: Analgesia, thermal radiation (tail flick) test on mice, intravenous). Settings: Mus musculus, 20 min, determined at effective maximum 20 minutes after administration, effect = latency ≥150% of pre-test average.
Type: in vivo, mice (male NMRI)
Description: Testing for analgesia using the tail flick test on mice
The analgesic effectiveness of the compounds according to the invention was investigated in the thermal radiation (tail flick) test on mice using the method of D'Amour and Smith (J. Pharm. Exp. Ther. 72, 74-79 (1941). Male NMRI mice with a weight between 20 and 24 g were used for this purpose. The animals were placed individually in special test cages and the bases of their tails were exposed to the focused thermal radiation from an electric lamp (Rhema Analgesiemeter Type 3010). The lamp intensity was adjusted so that the time from switching on the lamp until the sudden twitching away of the tail (latency of pain) was 3-5 seconds for untreated animals. Before the administration of a compound according to the invention, the animals were pre-tested twice within five minutes and the average value of these measurements was calculated as the pre-test average. The pain measurement was made 20, 40 and 60 minutes after intravenous administration. When the latency of pain increased, the maximum time of exposure was restricted to 12 seconds and an increase in the latent period to ≥150% of the pre-test average value was assessed as an analgesic effect. In order to determine the dosage-dependency, the respective compound according to the invention was applied in doses increasing logarithmically by a factor of 3-5, which included the threshold and the maximum effective dose each time. The ED50 values were determined from the number of analgesic animals by the method of Litchfield and Wilcoxon (J. Pharm. Exp. Ther. 96, […], (1949)). Determination of the ED50 was made at the effective maximum 20 minutes after intravenous administration of the substance.

First: COc1cccc([C@@]2(O)CC[C@H](OCc3ccc(Cl)cc3)C[C@@H]2CN(C)C)c1.Cl [(93), (+)-(1R, 2R, 4S)-4-(4-chloro-benzyloxy)-2-dimethylaminomethyl-1-(3-methoxyphenyl)-cyclohexanol hydrochloride]
Second: COc1cccc([C@@]2(O)CC[C@H](OCc3ccccc3)C[C@@H]2CN(C)C)c1.Cl [[(+)1], (1R,2R,4S)-4-benzyloxy-2-dimethylaminomethyl-1-(3-methoxy-phenyl)-cyclohexanol hydrochloride]
The ED50 of the first is 7.6-fold higher: 0.37 mg/kg for the first, 0.049 mg/kg for the second.

`CN(C)C[C@H]1C[C@@H](CCC2CCCC2)CC[C@]1(O)c1cccc(OC2CCCC2)c1` [(71), hydrochloride] and `CN(C)C[C@H]1C[C@@H](OCC2CCCC2)CC[C@]1(O)c1cccc(OC2CCCC2)c1.Cl` (racemic) [(60), (1RS,2RS,4SR)-4-cyclopentylmethoxy-1-(3-cyclopentyl-oxy-phenyl)-2-dimethylaminomethyl-cyclohexanol hydrochloride] are within 1.5-fold of each other in ED50: 3.35 mg/kg for the first, 2.46 mg/kg for the second.

First: C=C(C)CO[C@H]1CC[C@](O)(c2cccc(OC)c2)[C@@H](CN(C)C)C1 (relative stereo) [(14), (1RS,2RS,4SR)-2-dimethylaminomethyl-1-(3-methoxy-phenyl)-4-(2-methyl-2-allyloxy)-cyclohexanol hydrochloride]
Second: COc1cccc([C@]2(O)CC[C@@H](OCc3ccccc3)C[C@H]2CN(C)C)c1.Cl [[(-)1], (1S,2S,4R)-4-benzyloxy-2-dimethylaminomethyl-1-(3-methoxy-phenyl)-cyclohexanol hydrochloride]
The ED50 of the first is 2.2-fold lower: 0.379 mg/kg for the first, 0.822 mg/kg for the second.

First: CSc1cccc([C@@]2(O)CC[C@H](OCc3ccccc3)C[C@@H]2CN(C)C)c1 [[(+)6], (1R,2R,4S)-4-benzyloxy-2-[(dimethylamino)methyl]-1-(3-methyl-sulphanyl-phenyl)-cyclohexanol hydrochloride]
Second: CN(C)C[C@H]1C[C@@H](OCc2ccccc2)CC[C@]1(O)c1cccc(O)c1.Cl [(85), (+)-(1R, 2R, 4S)-3-(4-benzyloxy-2-dimethylaminomethyl-1-hydroxycyclohexyl)-phenol hydrochloride]
The ED50 of the first is 2.8-fold higher: 0.19 mg/kg for the first, 0.068 mg/kg for the second.

With `COc1cccc([C@@]2(O)CC[C@H](Cc3ccccc3)C[C@@H]2CN(C)C)c1.Cl` (racemic) [(35), (1RS,2RS,4SR)-4-benzyl-2-dimethylaminomethyl-1-(3-methoxy-phenyl)-cyclohexanol hydrochloride] the ED50 was 2.43 mg/kg.
